Data on three compounds can be found in patent US20080139546A1, “Tetrahydroquinoline, indoline, and related aniline derivatives of heterocycle-fused benzodioxan methylamines” (Wyeth, priority 2006, published 2008).

Test [1] deals with T1, Human 5-HT1A Receptor (Homo sapiens, UniProt P08908).
T1 construct: expressed in transfected cells; host or cells: CHO cells (Chinese hamster ovary), stably transfected
T1 sequence (P08908 1-422): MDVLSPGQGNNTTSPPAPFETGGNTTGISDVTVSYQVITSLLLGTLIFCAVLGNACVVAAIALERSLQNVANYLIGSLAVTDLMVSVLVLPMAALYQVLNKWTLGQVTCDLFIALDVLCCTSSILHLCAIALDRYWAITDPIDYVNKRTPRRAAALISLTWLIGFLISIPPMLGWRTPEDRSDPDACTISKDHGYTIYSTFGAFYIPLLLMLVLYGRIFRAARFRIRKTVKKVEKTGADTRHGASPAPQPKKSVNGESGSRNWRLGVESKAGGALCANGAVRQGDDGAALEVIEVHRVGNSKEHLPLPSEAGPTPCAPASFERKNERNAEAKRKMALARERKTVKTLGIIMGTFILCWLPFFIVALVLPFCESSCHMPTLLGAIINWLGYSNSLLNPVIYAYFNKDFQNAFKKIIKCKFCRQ
The experiment in a line: cAMP radioimmunoassay (RIA) in human 5-HT1A receptor cell line, inhibition of forskolin stimulated cAMP. As to conditions: forskolin (1 μM) stimulated cAMP, stably transfected CHO cells; read-out: h5HT1A cAMP EC50 (nM) (Example 19). The class given is cell-based. As to the method: Certain effects of 5-HT (e.g., certain effects mediated by the interaction of 5-HT with the 5-HT1A receptor) are mediated by cAMP. To test the ability of compounds described herein to modulate cAMP, a radioimmunoassay (RIA) method was used. Briefly, stably transfected CHO cells were grown in DMEM containing 10% heat inactivated FBS and non-essential amino acids. The cells were plated at a density of 10^6 cells per well in a 96-well plate and incubated for 2 days in a CO2 incubator. On the second day, the medium was replaced with 0.1 ml Krebs and incubated 15 minutes at 37° C. The medium was then replaced with Krebs buffer containing 500 μM isobutylmethylxanthine (IBMX) and incubated for approximately 5 minutes at 37° C. Wells were treated with forskolin (1 μM final concentration) followed immediately by test compound (0.1 and 1 μM for the initial screen) and incubated for an additional 10 minutes at 37° C. The reaction was terminated by removal of the medium and the addition of 0.5 ml ice cold assay buffer (supplied in the RIA kit). Plates were stored at −20° C. prior to assessment of cAMP formation by RIA. The cAMP kit was obtained from Amersham (Piscataway, N.J.) and the RIA was performed as per the kit instructions. In the initial screen, percent inhibition of forskolin stimulated cAMP was measured. […] These compounds behaved as either full agonists or partial agonists. 5-HT, BMY 7378, buspirone, and 8-OH-DPAT were used as reference compounds.
All compounds tested inhibited the forskolin-stimulated increase in […].

The target in test [2] is T1, Human 5-HT1A Receptor. The experiment in a line: 8-OH-DPAT binding, human 5-HT1A receptor cell line (displacement of [3H]-OHDPAT, stably transfected CHO cells). As to conditions: [3H]-OHDPAT 1.5 nM, read-out: h5HT1A Affinity Ki (nM) (Example 17). As to the method: Affinity for the serotonin 5-HT1A receptor was established by testing each compound's ability to displace [^3H]-OHDPAT (dipropylaminotetralin) from the 5-HT1A serotonin receptor following a modification of the procedure of Hall et al., J. Neurochem. 44:1685-1696 (1985). Stably transfected Chinese hamster ovary (CHO) cells were plated and grown in Dulbecco's Modified Eagle's Medium (DMEM) containing 10% heat inactivated fetal bovine serum (FBS) and non-essential amino acids. Cells were scraped off the plate, transferred to centrifuge tubes, and washed twice by centrifugation (2000 rpm for 10 minutes at 4° C.) in buffer (50 mM Tris, pH 7.5). The resulting pellets were aliquoted and stored at −80° C. On the day of assay, the cells were thawed on ice, and re-suspended in buffer. The binding assay was performed in a 96-well microtiter plate in a total volume of about 250 μL. Non-specific binding was determined in the presence of 10 μM 5-HT; the final radio ligand concentration was 1.5 nM. Following a 30 minute incubation at room temperature, the reaction was terminated by the addition of ice cold buffer and rapid filtration through a GF/B filter presoaked for 30 minutes in 0.5% polyethyleneimine (PEI). Compounds were initially tested in a single point assay to determine percent inhibition at 1 μM, 0.1 μM, and 0.01 μM. Subsequently, Ki values were determined for compounds defined to be active. Percent inhibition Ki was determined by RFComp (Lundon Software, Chagrin Falls, Ohio), with serotonin and 8-OH-DPAT as the reference compounds.
High affinity for the receptor is evidence of a compound's ability to directly modulate activity at the 5-HT1A receptor.

The next test concerns the target T2, serotonin transporter (Rattus norvegicus, UniProt P31652).
T2 construct: frontal cortical membranes prepared from male Sprague Dawley rats; from tissue; host or cells: rat frontal cortex membranes (male Sprague Dawley)
The experiment in a line: 3H-paroxetine binding to rat frontal cortical membranes, affinity for the serotonin transporter. As to conditions: 3H-paroxetine 0.1 nM, male Sprague Dawley rat frontal cortical membranes; read-out: 5HT Uptake r5HT-T Ki (nM) (Example 18). As for the experimental part: A protocol similar to that used by Cheetham et al. (Neuropharmacol. 32:737-743, 1993) was used to determine the affinity of compounds for the serotonin transporter (i.e., by determining the relative ability of a compound to displace ^3H-paroxetine from male rat frontal cortical membranes). Briefly, frontal cortical membranes prepared from male Sprague Dawley rats were incubated with ^3H-paroxetine (0.1 nM) for 60 minutes at 25° C. All tubes also contained either vehicle, test compound (one to eight concentrations), or a saturating concentration of fluoxetine (10 μM) to define […]. All reactions were terminated by the addition of ice cold Tris buffer followed by rapid filtration using a Tom Tech filtration device to separate bound from free ^3H-paroxetine. Bound radioactivity was quantitated using a Wallac 1205 Beta Plate® counter. Nonlinear regression analysis was used to determine IC50 values which were converted to Ki values using the method of Cheng and Prusoff (Biochem. Pharmacol. 22: 3099-3108, 1973); […].
This affinity translates to the blockade of 5-HT uptake, i.e., the ability of a compound increase synaptic 5-HT levels and to act like an SSRI.

The next test addresses T3, Human 5-HT Transporter (Homo sapiens, UniProt P31645).
T3 construct: endogenous in cells; host or cells: Jar cells (human carcinoma cell line), treated with staurosporine
The experiment in a line: Inhibition of 3H-5-HT uptake by Jar cells possessing the human 5-HT transporter. The test is classed as cell-based. As to conditions: Jar cells treated with staurosporine, read-out: 5HT Uptake h5HT-T IC50 (nM) (Example 20). As to the method: [Staurosporine greatly increases the expression of the 5-HT-Transporter.] On the day of assay, vehicle, excess of fluoxetine, or test compound was added to various wells on the plate. ^3H-5-HT was then aliquoted into all wells and the samples were incubated at 37° C. for 5 minutes. The wells were then washed with ice cold 50 mM Tris HCl (pH 7.4) buffer and aspirated to remove free ^3H-5-HT. 25 μL 0.25 M NaOH was then added to each well to lyse the cells and 75 μL scintillation cocktail (Microscint™ 20) was added prior to quantitation on a Packard TopCount® machine. Tubes with vehicle represent total possible uptake, radioactivity counted in tubes with excess fluoxetine represent nonspecific binding/uptake and were subtracted from the total possible uptake to give total possible specific uptake. This nonspecific binding (usual low in number) was then subtracted from the counts obtained in wells with various test compounds (or different concentrations of a test compound) resulting in uptake in the presence of drug. Specific uptake was then expressed as a percent of control values and was analyzed using nonlinear regression analysis (Prizm) to determine IC50 values. If the compound was active in inhibiting 5-HT uptake, its counts will be close to that obtained with fluoxetine.
This blockade, in vivo, would be expected to result in an increase in extracellular 5-HT concentrations.

T3 sequence (P31645 whole entry): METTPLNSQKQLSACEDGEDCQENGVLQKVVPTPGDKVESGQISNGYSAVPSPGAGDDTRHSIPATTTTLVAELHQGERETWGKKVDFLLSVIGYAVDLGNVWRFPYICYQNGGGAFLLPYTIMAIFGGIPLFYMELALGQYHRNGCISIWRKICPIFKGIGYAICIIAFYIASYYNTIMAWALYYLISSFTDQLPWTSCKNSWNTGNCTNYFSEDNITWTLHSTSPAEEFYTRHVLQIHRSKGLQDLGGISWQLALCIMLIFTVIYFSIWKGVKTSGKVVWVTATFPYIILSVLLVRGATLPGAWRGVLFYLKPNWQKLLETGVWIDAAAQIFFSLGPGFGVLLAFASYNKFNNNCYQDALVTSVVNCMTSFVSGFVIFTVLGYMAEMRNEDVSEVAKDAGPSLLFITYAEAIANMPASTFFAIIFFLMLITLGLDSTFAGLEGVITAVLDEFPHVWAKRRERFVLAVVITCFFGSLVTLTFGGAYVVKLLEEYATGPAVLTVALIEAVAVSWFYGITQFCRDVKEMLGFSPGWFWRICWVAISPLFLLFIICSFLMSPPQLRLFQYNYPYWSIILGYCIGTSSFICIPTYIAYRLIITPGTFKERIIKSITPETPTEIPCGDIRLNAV
T2 sequence (P31652 whole entry): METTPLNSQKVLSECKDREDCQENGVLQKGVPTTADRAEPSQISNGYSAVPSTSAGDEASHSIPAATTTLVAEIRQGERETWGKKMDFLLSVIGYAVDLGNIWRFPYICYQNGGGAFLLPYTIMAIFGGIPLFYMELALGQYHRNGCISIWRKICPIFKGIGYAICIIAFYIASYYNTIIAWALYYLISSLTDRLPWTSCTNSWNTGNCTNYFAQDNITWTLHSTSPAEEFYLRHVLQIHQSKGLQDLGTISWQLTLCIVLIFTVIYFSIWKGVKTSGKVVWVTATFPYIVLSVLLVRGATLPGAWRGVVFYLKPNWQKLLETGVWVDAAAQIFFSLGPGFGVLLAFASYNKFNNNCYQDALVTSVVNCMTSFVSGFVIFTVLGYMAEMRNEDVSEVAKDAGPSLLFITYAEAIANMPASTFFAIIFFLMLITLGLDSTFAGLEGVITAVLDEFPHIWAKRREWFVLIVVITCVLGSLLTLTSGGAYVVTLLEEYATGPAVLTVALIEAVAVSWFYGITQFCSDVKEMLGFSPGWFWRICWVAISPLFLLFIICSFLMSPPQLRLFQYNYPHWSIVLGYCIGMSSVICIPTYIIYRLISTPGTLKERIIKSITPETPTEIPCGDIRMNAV

In the case of `Cc1ccc2c3c(ccc2n1)OC[C@H](CNCCCN1CCOc2ccc(F)cc21)O3` [Example 11, 3-(6-fluoro-2,3-dihydro-4H-1,4-benzoxazin-4-yl)-N-{[(2S)-8-methyl-2,3-dihydro[1,4]dioxino[2,3-f]quinolin-2-yl]methyl}propan-1-amine], at Human 5-HT1A Receptor [1], the EC50 came out at 1.43 nM. In addition, the Ki was determined as 2.77 nM at Human 5-HT1A Receptor [2] and 14.7 nM at serotonin transporter. In addition, the IC50 on Human 5-HT Transporter was found to be 4710 nM.
Take `Cc1ccc2c3c(ccc2n1)OC[C@H](CNCCCCN1CCCc2ccccc21)O3` [Example 15, 4-(3,4-dihydroquinolin-1(2H)-yl)-N-{[(2S)-8-methyl-2,3-dihydro[1,4]dioxino[2,3-f]quinolin-2-yl]methyl}butan-1-amine]: at Human 5-HT1A Receptor [1], the EC50 worked out at 9.25 nM. The Ki on Human 5-HT1A Receptor [2] is 0.66 nM; on serotonin transporter it was 11.8 nM. Besides, at Human 5-HT Transporter, the IC50 turned out to be 438 nM.
As for `Cc1ccc2c3c(ccc2n1)OC[C@H](CNCCCN1CCCc2cc(F)c(F)cc21)O3` [Example 7, 3-(6,7-difluoro-3,4-dihydroquinolin-1(2H)-yl)-N-{[(2S)-8-methyl-2,3-dihydro[1,4]dioxino[2,3-f]quinolin-2-yl]methyl}propan-1-amine], the EC50 at Human 5-HT1A Receptor [1] was 1.63 nM. The Ki at Human 5-HT1A Receptor [2] came out at 3.73 nM; at serotonin transporter, 12.3 nM. Besides, the half-maximal inhibitory concentration (IC50) on Human 5-HT Transporter turned out to be 77 nM.
